Experimental findings from patent US8168673B2, “Compounds having CRTH2 antagonist activity” (Oxagen Limited, priority 2008, dated 2012) are described below.

Experiment [1] concerns the target T1, CRTH2 Receptor (Homo sapiens, UniProt Q9Y5Y4).
T1 construct: expressed in transfected cells; membranes
T1 sequence (Q9Y5Y4 1-395): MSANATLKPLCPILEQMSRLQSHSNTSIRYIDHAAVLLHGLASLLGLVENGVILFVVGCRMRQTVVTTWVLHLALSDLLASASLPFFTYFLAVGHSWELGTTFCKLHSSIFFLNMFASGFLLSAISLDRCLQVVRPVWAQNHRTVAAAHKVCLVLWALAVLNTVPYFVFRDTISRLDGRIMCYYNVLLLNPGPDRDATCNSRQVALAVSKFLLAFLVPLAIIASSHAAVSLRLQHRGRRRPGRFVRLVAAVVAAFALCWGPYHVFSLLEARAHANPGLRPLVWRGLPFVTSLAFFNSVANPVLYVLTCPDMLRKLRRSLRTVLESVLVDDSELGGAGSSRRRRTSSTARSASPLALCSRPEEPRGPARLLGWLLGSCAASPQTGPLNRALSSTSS
The experiment is described as follows: Radioligand binding assay, [3H]PGD2 on CHO/CRTH2 cell membranes. Particulars: [3H]PGD2 competition. How it is done:
Chinese Hamster Ovary cells were transfected with CRTH2 or DP receptors (CHO/CRTH2 and CHO/DP) and were maintained in culture in a humidified atmosphere at 37° C. (5% CO2) in Minimum Essential Medium (MEM) supplemented with 10% foetal bovine serum, 2 mM glutamine, and 1 mg ml^−1 active G418. The cells were passaged every 2-3 days. For radioligand binding assay, cells were prepared in triple-layer flasks or in 175 cm^2 square flasks (for membrane preparation.
Membranes were prepared either from CHO/CRTH2 and CHO/DP cells, or from platelets (as a source of TP receptors). CHO cells grown to confluency were washed with PBS and detached using a Versene solution (15 ml per flask). When the cells were grown in 175 cm^2 square flask, they were collected by scrapping in PBS. The cell suspensions were centrifuged (1,700 rpm, 10 min, 4° C.) and resuspended in 15 ml of buffer (1×HBSS, supplemented with 10 mM HEPES, pH 7.3). Cell suspensions were then homogenised using an Ultra Turrax at setting 4-6 for 20 s. The homogenate was centrifuged at 1,700 rpm for 10 min and the supernatant was collected and centrifuged at 20,000 rpm for 1 h at 4° C. The resulting pellet was resuspended in buffer and stored at −80° C. in aliquots of 200-500 μl. The protein concentration was determined by the method of Bradford (1976), using bovine serum albumin as standard. The platelets were washed by centrifugation at 600×g for 10 min and resuspended in ice-cold assay buffer (10 mM Tris-HCl, pH 7.4, 5 mM Glucose, 120 mM NaCl, 10 μM indomethacin) and directly centrifuged at 20,000 rpm for 30 min at 4° C. The resulting pellet was treated as described above.
[^3H]PGD2 (160 Ci/mmol) binding experiments were performed on membranes prepared as described above. Assays were performed in a final volume of 100 μl of buffer (1×HBSS/HEPES 10 mM, pH 7.3). Cell membranes (15 μg) were preincubated at room temperature with varying concentration of competing ligand for 15 min. [^3H]PGD2 was then added and the incubation continued for a further one hour at room temperature. The reaction was terminated by the addition of 200 μl ice-cold assay buffer to each well, followed by rapid filtration through Whatman GF/B glass fibre filters using a Unifilter Cell harvester (PerkinElmer Life Sciences) and six washes of 300 μl of ice-cold buffer. The Unifilter plates were dried at room temperature for at least 1 h and the radioactivity retained on the filters was determined on a Beta Trilux counter (PerkinElmer Life Sciences), following addition of 40 μl of Optiphase Hi-Safe 3 (Wallac) liquid scintillation. Non specific binding was defined in the presence of 10 μM unlabelled PGD2. Assays were performed in duplicate.

Experiment [2] relates to PGD2 induced eosinophil shape change. Briefly: Human whole blood eosinophil shape change assay. Format: cell-based. Conditions: for pIC50: Eosinophil, human whole blood, 10 nM PGD2, read-out: IC50 Values for the Effect of Test Compounds on 10 nM PGD2-induced Eosinophil Shape Change; for activity in whole blood, in words: summary statement on Table 2. The method, then:
Compounds 1 to 9 were assayed for their effect on PGD2 induced eosinophil shape change.
Compounds (1 μl, 200× final concentration) were added directly to 200 μl whole blood, mixed well and incubated for 15 min, 37° C., 5% CO2. After this time, cell shape was fixed by addition of 300 μl Cytofix™ buffer (BD Biosciences), 15 min on ice. 10 ml RBC lysis buffer was added to the fixed cells, incubated 5 min, at room temperature and centrifuged, 300×g for 5 min. Supernatant (containing lysed red cells) was removed and the lysis step was repeated. Leukocytes were resuspended in 250 μl RPMI/10% FCS and shape change analysed by FACS. Eosinophils were gated out based on their autofluorescence and 2000 eosinophil events were counted per sample. Data were analysed in triplicate.

The target of experiment [3] is T1, CRTH2 Receptor. The experiment is described as follows: Radioligand binding assay, [3H]PGD2 on CHO/CRTH2 cell membranes. Conditions: summary statement on Table 1.

pIC50, pKi: −log10 of the molar value.

On CRTH2 Receptor [1], `Cc1c(Cc2ccccc2S(=O)(=O)C2CCCCC2)c2cc(F)ccc2n1CC(=O)O` [Compound 1, 2-(3-(2-(Cyclohexylsulfonyl)benzyl)-5-fluoro-2-methyl-1H-indol-1-yl)acetic acid] gave a negative logarithm of the Ki (pKi) of 10.70. In experiment [2], the pIC50 was 8.22 and the “activity in whole blood, in words” value is recorded as “activity is maintained in whole blood”. In addition, at CRTH2 Receptor [3], the “intrinsic activity (CRTH2 antagonist), in words” value (“intrinsic activity” for short) is on record as “high intrinsic activity”.
Regarding `Cc1c(Cc2ccccc2S(=O)(=O)N2CCCCC2)c2cc(F)ccc2n1CC(=O)O` [Compound 2, 2-(5-Fluoro-2-methyl-3-(2-(piperidin-1-ylsulfonyl)benzyl)-1H-indol-1-yl)acetic Acid], at CRTH2 Receptor [1], the pKi is 10.40. Moreover, in experiment [2], the pIC50 is 8.30 and the “activity in whole blood, in words” value is given as “activity is maintained in whole blood”. Also, the “intrinsic activity” value on CRTH2 Receptor [3] is reported as “high intrinsic activity”.
The like results for `Cc1c(Cc2ccccc2S(=O)(=O)C2CCCC2)c2cc(F)ccc2n1CC(=O)O` [Compound 3, 2-(3-(2-(Cyclopentylsulfonyl)benzyl)-5-fluoro-2-methyl-1H-indol-1-yl)acetic Acid] were, in that order, 9.70, 8.15, “activity is maintained in whole blood” and “high intrinsic activity”.
`Cc1c(Cc2cccc(S(=O)(=O)N3CCCCC3)c2)c2cc(F)ccc2n1CC(=O)O` [Compound 4, 2-(5-Fluoro-2-methyl-3-(3-(piperidin-1-ylsulfonyl)benzyl)-1H-indol-1-yl)acetic Acid] gave a pKi at CRTH2 Receptor [1] of 7.26.
For the compound `Cc1c(Cc2ccccc2S(=O)(=O)N2CCCC2)c2cc(F)ccc2n1CC(=O)O` [Compound 5, 2-(5-Fluoro-2-methyl-3-(2-(pyrrolidin-1-ylsulfonyl)benzyl)-1H-indol-1-yl)acetic Acid], in experiment [2], the pIC50 is 8.30 and the “activity in whole blood, in words” value is “activity is maintained in whole blood”. Moreover, the “intrinsic activity” value on CRTH2 Receptor [3] was “high intrinsic activity”.
`Cc1c(Cc2ccc(S(=O)(=O)C3CCCCC3)cc2)c2cc(F)ccc2n1CC(=O)O` [Compound 6, 2-(3-(4-(Cyclohexylsulfonyl)benzyl)-5-fluoro-2-methyl-1H-indol-1-yl)acetic Acid] had a negative logarithm of the Ki (pKi) on CRTH2 Receptor [1] of 8.70. The pIC50 in experiment [2] is 7.07.
For the compound `Cc1c(Cc2ccc(S(=O)(=O)C3CCCC3)cc2)c2cc(F)ccc2n1CC(=O)O` [Compound 7, 2-(3-(4-(Cyclopentylsulfonyl)benzyl)-5-fluoro-2-methyl-1H-indol-1-yl)acetic Acid], the negative-log Ki (pKi) at CRTH2 Receptor [1] is 8.30. Further, the negative-log IC50 (pIC50) in experiment [2] is 7.36.
Take `Cc1c(Cc2ccccc2S(=O)(=O)C2CCC2)c2cc(F)ccc2n1CC(=O)O` [Compound 8, 2-(3-(2-(Cyclobutylsulfonyl)benzyl)-5-fluoro-2-methyl-1H-indol-1-yl)acetic Acid]: at CRTH2 Receptor [1], the negative logarithm of the Ki (pKi) is 8.52. Also, the negative-log IC50 (pIC50) in experiment [2] is 6.62.
For `Cc1c(Cc2cccc(S(=O)(=O)N3CCCC3)c2)c2cc(F)ccc2n1CC(=O)O` [Compound 9, 2-(5-Fluoro-2-methyl-3-(3-(pyrrolidin-1-ylsulfonyl)benzyl)-1H-indol-1-yl)acetic Acid], on CRTH2 Receptor [1], the pKi was 7.00.
With `Cc1c(Cc2ccc(S(=O)(=O)N3CCCCC3)cc2)c2cc(F)ccc2n1CC(=O)O` [Compound 10, 2-(5-Fluoro-2-methyl-3-(4-(piperidin-1-ylsulfonyl)benzyl)-1H-indol-1-yl)acetic Acid], the negative-log Ki (pKi) at CRTH2 Receptor [1] is 9.00.

A word on the pKi: it is the negative decadic logarithm of the Ki, by convention in mol/L. Read a low pKi as a large Ki. The pIC50 is the IC50 on a negative log10 scale, so that one unit is a factor of ten.
